Measured values taken from PubChem BioAssay AID248 (DTP/NCI, 2004).
“And” between values parts separate entries of the source, which are not always exact repeats. Equal entries are not always repeated. Toxic doses and inconclusive results are not listed. Square brackets hold non-standard residues; d marks the D form. Peptide text beside a SMILES is read from it. ξ: configuration not given here. ξD = NC(CC(=O)O)C(=O)O

Test system: L1210 leukemia ip in BDF1 mice, survival T/C
Assay: NCI In Vivo Anticancer Drug Screen. Data for tumor model L1210 Leukemia (intraperitoneal) in B6D2F1 (BDF1) mice
Conditions: endpoint: mean survival time, higher = longer survival
Outline: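 Tumor was transplanted into mice, which were then dosed with test compound or vehicle alone. Survival was recorded for each group, and the treated figure was expressed relative to the control figure.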

[1] = dose: 75.0 mg/kg/injection, schedule: Q01DX001 (ip), vehicle: saline
[2] = dose: 150.0 mg/kg/injection, schedule: Q01DX001 (ip), vehicle: saline
[3] = dose: 300.0 mg/kg/injection, schedule: Q01DX001 (ip), vehicle: saline
[4] = dose: 100.0 mg/kg/injection, schedule: Q01DX001 (ip), vehicle: saline
[5] = dose: 200.0 mg/kg/injection, schedule: Q01DX001 (ip), vehicle: saline
[6] = dose: 400.0 mg/kg/injection, schedule: Q01DX001 (ip), vehicle: saline
[7] = dose: 10.0 mg/kg/injection, schedule: Q01DX001 (ip), vehicle: saline
[8] = dose: 20.0 mg/kg/injection, schedule: Q01DX001 (ip), vehicle: saline
[9] = dose: 100.0 mg/kg/injection, schedule: Q01DX009 (ip), vehicle: Klucel (hydroxypropylcellulose) (HPC)
[10] = dose: 100.0 mg/kg/injection, schedule: Q04DX002 (ip), vehicle: Klucel (hydroxypropylcellulose) (HPC)
[11] = dose: 200.0 mg/kg/injection, schedule: Q01DX009 (ip), vehicle: Klucel (hydroxypropylcellulose) (HPC)
[12] = dose: 200.0 mg/kg/injection, schedule: Q04DX002 (ip), vehicle: Klucel (hydroxypropylcellulose) (HPC)
[13] = dose: 400.0 mg/kg/injection, schedule: Q01DX009 (ip), vehicle: Klucel (hydroxypropylcellulose) (HPC)
[14] = dose: 400.0 mg/kg/injection, schedule: Q04DX002 (ip), vehicle: Klucel (hydroxypropylcellulose) (HPC)
[15] = dose: 100.0 mg/kg/injection, schedule: Q01DX009 (ip), vehicle: saline with Tween-80

SMILES: CC(C)=C(Br)Br
- T/C [1]: 94 % of control
- T/C [2]: 94 % of control
- T/C [3]: 96 % of control

SMILES: CCOC(=O)/C(=C/c1ccc(OC)cc1)P(=O)(OCC)OCC
- T/C (dose: 50.0 mg/kg/injection, schedule: Q01DX001 (ip), vehicle: saline): 91 % of control
- T/C [4]: 91 % of control
- T/C [5]: 103 % of control
- T/C [6]: 95 % of control

SMILES: CN1CN(c2ccccc2)C2(CCN(Cc3nc4ccccc4[nH]3)CC2)C1=O
- T/C (dose: 75.0 mg/kg/injection, schedule: Q04DX003 (ip), vehicle: Klucel (hydroxypropylcellulose) (HPC)): 100 % of control
- T/C (dose: 150.0 mg/kg/injection, schedule: Q04DX003 (ip), vehicle: Klucel (hydroxypropylcellulose) (HPC)): 107 % of control
- T/C (dose: 300.0 mg/kg/injection, schedule: Q04DX003 (ip), vehicle: Klucel (hydroxypropylcellulose) (HPC)): 105 % of control

SMILES: CN1C2CCCCC1C1CCCCC2N1C
- T/C [1]: 105 % of control
- T/C [2]: 94 % of control
- T/C [3]: 98 % of control

SMILES: COc1cccc(/C=C2/COC/C(=C\c3cccc(OC)c3OC)C2=O)c1OC
- T/C (dose: 100.0 mg/kg/injection, schedule: Q01DX009 (ip), vehicle: saline): 91 % of control
- T/C (dose: 200.0 mg/kg/injection, schedule: Q01DX009 (ip), vehicle: saline): 97 % of control

SMILES: CCCCCCCCCCCC[N+](C)(C)C(C)Cc1ccccc1 (centres undefined)
- T/C [7]: 98 % of control
- T/C [8]: 98 % of control

SMILES: COC(=O)c1n[nH]c(C2OCC3OC(C)(C)OC32)c1I (centres undefined)
- T/C (dose: 100.0 mg/kg/injection, schedule: Q01DX005 (ip), vehicle: saline): 98 % of control
- T/C (dose: 200.0 mg/kg/injection, schedule: Q01DX005 (ip), vehicle: saline): 98 % of control

SMILES: Cc1c(-[n+]2ccccc2)[nH]c2ccccc12
- T/C (dose: 5.0 mg/kg/injection, schedule: Q01DX001 (ip), vehicle: saline): 103 % of control
- T/C [7]: 103 % of control
- T/C [8]: 101 % of control
- T/C (dose: 40.0 mg/kg/injection, schedule: Q01DX001 (ip), vehicle: saline): 104 % of control
- T/C (dose: 80.0 mg/kg/injection, schedule: Q01DX001 (ip), vehicle: saline): 106 % of control
- T/C [4]: 92 % of control

SMILES: NC(=O)CN1C(=O)C2C3C=CC(C3)C2C1=O (centres undefined)
- T/C (dose: 100.0 mg/kg/injection, schedule: Q04DX003 (ip), vehicle: saline with Tween-80): 97 % of control
- T/C (dose: 200.0 mg/kg/injection, schedule: Q04DX003 (ip), vehicle: saline with Tween-80): 109 % of control
- T/C (dose: 400.0 mg/kg/injection, schedule: Q04DX003 (ip), vehicle: saline with Tween-80): 97 % of control

SMILES: CCCCCCCCS(=O)(=O)CCO
- T/C (dose: 100.0 mg/kg/injection, schedule: Q01DX009 (ip), vehicle: carboxymethylcellulose (CMC)): 93 % of control
- T/C (dose: 100.0 mg/kg/injection, schedule: Q04DX003 (ip), vehicle: carboxymethylcellulose (CMC)): 106 % of control
- T/C (dose: 200.0 mg/kg/injection, schedule: Q01DX009 (ip), vehicle: carboxymethylcellulose (CMC)): 90 % of control
- T/C (dose: 200.0 mg/kg/injection, schedule: Q04DX003 (ip), vehicle: carboxymethylcellulose (CMC)): 101 % of control
- T/C (dose: 400.0 mg/kg/injection, schedule: Q01DX009 (ip), vehicle: carboxymethylcellulose (CMC)): 95 % of control
- T/C (dose: 400.0 mg/kg/injection, schedule: Q04DX003 (ip), vehicle: carboxymethylcellulose (CMC)): 106 % of control

SMILES: O=NN(CCCl)C(=O)Nc1ccc2ccccc2c1
- T/C (dose: 200.0 mg/kg/injection, schedule: Q01DX001 (ip), vehicle: carboxymethylcellulose (CMC)): 161 % of control
- T/C (dose: 300.0 mg/kg/injection, schedule: Q01DX001 (ip), vehicle: carboxymethylcellulose (CMC)): 172 % of control
- T/C (dose: 400.0 mg/kg/injection, schedule: Q01DX001 (ip), vehicle: carboxymethylcellulose (CMC)): 96 % of control

SMILES: O=C(O)c1ccc(NC(C(=O)c2ccccc2)c2ccccc2)cc1 (centres undefined)
- T/C (dose: 50.0 mg/kg/injection, schedule: Q01DX001 (ip), vehicle: Klucel (hydroxypropylcellulose) (HPC)): 96 % of control
- T/C (dose: 100.0 mg/kg/injection, schedule: Q01DX001 (ip), vehicle: Klucel (hydroxypropylcellulose) (HPC)): 107 % of control
- T/C (dose: 200.0 mg/kg/injection, schedule: Q01DX001 (ip), vehicle: Klucel (hydroxypropylcellulose) (HPC)): 94 % of control

SMILES: CC(=O)Nc1ccc(/C=N/NC(=O)c2cccc3ccccc23)cc1
- T/C [4]: 86 % of control

SMILES: CC(=O)c1c(C)c(Cl)c(C)c(Cl)c1O
- T/C [9]: 101 % of control
- T/C [10]: 103 % of control and 107 % of control
- T/C [11]: 104 % of control
- T/C [12]: 103 % of control and 114 % of control
- T/C [13]: 90 % of control
- T/C [14]: 95 % of control and 107 % of control

SMILES: Cc1cccc(NC(=O)CCCCCCCCC(=O)Nc2cccc(C)c2C)c1C
- T/C [9]: 92 % of control
- T/C [11]: 102 % of control
- T/C [13]: 98 % of control

SMILES: NC(=O)Nc1ccc(SCC(=O)O)cc1
- T/C [10]: 106 % of control
- T/C [12]: 95 % of control
- T/C [14]: 113 % of control

SMILES: N#CCCCC(=O)c1ccccc1
- T/C (dose: 25.0 mg/kg/injection, schedule: Q01DX009 (ip), vehicle: saline with Tween-80): 96 % of control
- T/C (dose: 50.0 mg/kg/injection, schedule: Q01DX009 (ip), vehicle: saline with Tween-80): 102 % of control
- T/C [15]: 92 % of control

SMILES: NCC(=O)NC(CC(=O)O)C(=O)O (centres undefined) (H-Gly-[ξD]-OH)
- T/C [4]: 97 % of control
- T/C [5]: 104 % of control
- T/C [6]: 97 % of control

SMILES: C=C(c1ccccc1)[P+](c1ccccc1)(c1ccccc1)c1ccccc1
- T/C (dose: 15.0 mg/kg/injection, schedule: Q01DX001 (ip), vehicle: saline): 109 % of control

SMILES: CCCCCCCCCCCCCCCCCCNC(=O)N1CC1
- T/C [15]: 93 % of control
- T/C (dose: 100.0 mg/kg/injection, schedule: Q04DX003 (ip), vehicle: Klucel (hydroxypropylcellulose) (HPC)): 88 % of control
- T/C (dose: 200.0 mg/kg/injection, schedule: Q01DX009 (ip), vehicle: saline with Tween-80): 94 % of control
- T/C (dose: 200.0 mg/kg/injection, schedule: Q04DX003 (ip), vehicle: Klucel (hydroxypropylcellulose) (HPC)): 100 % of control
- T/C (dose: 400.0 mg/kg/injection, schedule: Q01DX009 (ip), vehicle: saline with Tween-80): 93 % of control
- T/C (dose: 400.0 mg/kg/injection, schedule: Q04DX003 (ip), vehicle: Klucel (hydroxypropylcellulose) (HPC)): 93 % of control

SMILES: CC12CC3CC(C1)CC(CC(N)=O)(C3)C2
- T/C (dose: 100.0 mg/kg/injection, schedule: Q04DX003 (ip), vehicle: saline): 98 % of control
- T/C (dose: 200.0 mg/kg/injection, schedule: Q04DX003 (ip), vehicle: saline): 103 % of control
- T/C (dose: 400.0 mg/kg/injection, schedule: Q04DX003 (ip), vehicle: saline): 98 % of control
